Data from US10655140B2, “Herbicide-resistant protein, encoding gene and use thereof” (BEIJING DABEINONG BIOTECHNOLOGY CO., LTD., priority 2015, dated 2020).

Tests used:
[1] = test system: Arabidopsis T1 plants transformed with 24DT22 nucleotide sequence, control nucleotide sequence and wild-type Arabidopsis plants; experiment: Herbicide resistance effect test of transgenic Arabidopsis T1 plants (spraying); assay type: in vivo, Arabidopsis thaliana; conditions: Arabidopsis genotype 24DT22; for High resistant (number of plants): 560 g ae/ha (1-fold field concentration), growth consistent with blank solvent 7 days after spraying; for Moderate resistant (number of plants): curly rosette leaves 7 days after spraying; for Low resistant (number of plants): incapable of bolting 14 days after spraying
Description: 24DT22 gene was used to transform Arabidopsis for the first time. At first, T1 transformants were selected from the background of un-transformed seeds, using glufosinate-ammonium selection scheme. About 20000 T1 seeds are screened among which 314 strains of T1 generation positive transformants (PAT gene) were identified, i.e. the transformation efficiency was about 1.6%. Herbicide resistance effect tests to 2,4-D dimethyl ammonium salt and agroxone of Arabidopsis T1 plants transformed with 24DT22 nucleotide sequence, control nucleotide sequence respectively and wild-type Arabidopsis plants were performed after 18 days of planting.
Arabidopsis T1 plants transformed with 24DT22 nucleotide sequence, control nucleotide sequence respectively and wild-type Arabidopsis plants were sprayed with 2,4-D dimethyl ammonium salt (560 g ae/ha, 1-fold concentration in field), agroxone (560 g ae/ha, 1-fold concentration in field) and blank solvent (water). Resistance conditions of the plants were counted 7 days and 14 days after spraying. Plants with growth conditions consistent with blank solvent (water) 7 days after spaying were classified as highly resistant plants; Plants with curly rosette leaves 7 days after spaying were classified as moderately resistant plants; Plants incapable of bolting 14 days after spaying were classified as low-resistant plants and the dead plants 14 days after spaying were classified as non-resistant plants. Because each Arabidopsis T1 plant is an independent transformation event, significant differences of individual T1 responses can be expected under a given dose.

[2] = test system: Soybean plants containing 24DT22 nucleotide sequence, control nucleotide sequence and wild type soybean plants; experiment: Herbicide resistance effect test of transgenic soybean T1 plants (spraying, damage degree); assay type: in vivo, soybean (Zhonghuang 13); conditions: for Average damage % 6HAT: 6 hours after spraying; for Average damage % 2DAT: 2 days after spraying
Description: Herbicide resistance effects tests to 2,4-D dimethyl ammonium salt and agroxone of soybean plants containing 24DT22 nucleotide sequence and control nucleotide sequence respectively and wild type soybean plants (stages V3-V4) were performed respectively.
Soybean plants containing 24DT22 nucleotide sequence, control nucleotide sequence and wild type soybean plants were taken and spayed with 2,4-D dimethyl ammonium salt (2240 g ae/ha, four-folds concentration in field), agroxone (2240 g ae/ha, four-folds concentration in field) and blank solvent (water). Take statistics of the damage degree of each plant caused by herbicides according to the curling degree of leaves and the damage degree of growing point six hours ([…]), two days (2DAT), seven days (7DAT) and 14 days (14DAT) after spraying respectively: if leaves are flat like wild-type leaves and the growing point is intact, the damage degree is 0%; if leaves curl up and wilt and the growing point is died, the damage degree is 100%. There are three strains contained a transferred 24DT22 nucleotide sequence (S1, S2 and S3), two strains contained a transferred control sequence (S4 and S5) and one wild-type strain (CK1) in total; select 10-15 plants from each strain for testing.

[3] = test system: Corn plants containing 24DT22 nucleotide sequence, control nucleotide sequence and wild type corn plants; experiment: Herbicide-resistance effect test of transgenic corn T1 plants (prop/brace root development); assay type: in vivo, corn (Zong 31); conditions: 21 days after spraying
Description: Herbicide resistance effects tests to 2,4-D dimethyl ammonium salt and agroxone of corn plants containing 24DT22 nucleotide sequence, control nucleotide sequence respectively and wild type corn plants (stages V3-V4) were performed respectively.
Corn plants containing 24DT22 nucleotide sequence, control nucleotide sequence respectively and wild type corn plants were taken and spayed with 2,4-D dimethyl ammonium salt (8960 g ae/ha, 16-folds concentration in field), agroxone (8960 g ae/ha, 16-folds concentration in field) and blank solvent (water) respectively. Prop root development was counted 21 days after spaying. Three strains (S6, S7 and S8) of corn plants transformed with 24DT22 nucleotide sequence, two strains (S9 and S10) of corn plants transformed with control nucleotide sequence and 1 strain of wild type (CK2) corn were selected and 10-15 plants from each stain were tested.

[4] = soybean strain S1 (24DT22), 2240 g ae/ha (4-fold field concentration)
[5] = soybean strain S2 (24DT22), 2240 g ae/ha
[6] = soybean strain S3 (24DT22), 2240 g ae/ha
[7] = corn strain S8 (24DT22), 8960 g ae/ha

SMILES	High resistant (number of plants) [1]	Moderate resistant (number of plants) ([1]; 560 g ae/ha)	Non-resistant (number of plants) ([1]; 560 g ae/ha, dead 14 days after spraying)	Low resistant (number of plants) ([1]; 560 g ae/ha)	Average damage % 6HAT [2, 4] [%]	Average damage % 6HAT [2, 5] [%]	Average damage % 6HAT [2, 6] [%]	Average damage % 2DAT [2, 6] [%]	Abnormal development of brace roots (number of plants) ([3]; corn strain CK2 (wild type), 8960 g ae/ha)	Normal development of brace roots (number of plants) [3, 7]	Average damage % 2DAT [2, 5] [%]	Average damage % 7DAT ([2]; soybean strain S2 (24DT22), 2240 g ae/ha, 7 days after spraying) [%]	Normal development of brace roots (number of plants) ([3]; corn strain S6 (24DT22), 8960 g ae/ha (16-fold field concentration))	Normal development of brace roots (number of plants) ([3]; corn strain S7 (24DT22), 8960 g ae/ha)	Abnormal development of brace roots (number of plants) ([3]; corn strain S10 (control sequence), 8960 g ae/ha)
CNC.O=C(O)COc1ccc(Cl)cc1Cl [2,4-D dimethyl ammonium salt]	28	1	0	2	6	11	3	0	15	10					
Cc1cc(Cl)ccc1OCC(=O)O [agroxone]	25	3		1	10	16	7	4		13	11	6	13	14	11
